The MTD is the highest dose tested that stayed within the study's limit of toxicity.

The subject of one series is A-427. The experiment in a line: MTT test, cytotoxic activity on non-clonogenic cell lines. Format: cell-based. To be noted: Homo sapiens, 10^−5 M, 72 hours incubation, MTT, mean value, read-out: mean optical density, expressed as percentage relative to the mean optical density under the control condition (100%). Put shortly: (§1)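 Human cancer lines seeded at 20 000–50 000 cells/ml, allowed 24 h to attach, then exposed to compounds at 10^−5 to 10^−10 M versus solvent control.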
A general note: Tetrazolium dyes change colour on reduction, which living cells bring about.
With `CCOC(=O)CCn1cc(-c2ccc(OC)cc2)c(=O)c2ccc(OC)cc21` [CRL8468, Ethyl 3-[7-methoxy-3-(4-methoxyphenyl)-4-oxo-1,4-dihydro-1-quinolinyl]propanoate], the viability at 10 µM came to 69.7%.

As to `COc1ccc(-c2cn(CCCC#N)c3cc(OC)ccc3c2=O)cc1` [CRL8470, 4-[7-Methoxy-3-(4-methoxyphenyl)-4-oxo-1,4-dihydro-1-quinolinyl]butanenitrile], the viability at 10 µM was found to be 103%.

A further series deals with A549. The description is as above. Format: cell-based. The note with it: Homo sapiens, 10^−5 M, 72 hours incubation, MTT, mean value, read-out: mean optical density, expressed as percentage relative to the mean optical density under the control condition (100%). Put shortly:
as §1
For the molecule `CCOC(=O)CCn1cc(-c2ccc(OC)cc2)c(=O)c2ccc(OC)cc21` [CRL8468, Ethyl 3-[7-methoxy-3-(4-methoxyphenyl)-4-oxo-1,4-dihydro-1-quinolinyl]propanoate], the viability at 10 µM was 93.6%.

Consider `COc1ccc(-c2cn(CCCC#N)c3cc(OC)ccc3c2=O)cc1` [CRL8470, 4-[7-Methoxy-3-(4-methoxyphenyl)-4-oxo-1,4-dihydro-1-quinolinyl]butanenitrile], for which the viability at 10 µM was 80.2%.

A further series concerns HCT-15. The series is described as above. In kind it is cell-based. The note with it: Homo sapiens, HCT-16, 10^−5 M, 72 hours incubation, MTT, mean value, read-out: mean optical density, expressed as percentage relative to the mean optical density under the control condition (100%). Put shortly: as §1
Regarding `CCOC(=O)CCn1cc(-c2ccc(OC)cc2)c(=O)c2ccc(OC)cc21` [CRL8468, Ethyl 3-[7-methoxy-3-(4-methoxyphenyl)-4-oxo-1,4-dihydro-1-quinolinyl]propanoate], the viability at 10 µM came to 111%.

For the molecule `COc1ccc(-c2cn(CCCC#N)c3cc(OC)ccc3c2=O)cc1` [CRL8470, 4-[7-Methoxy-3-(4-methoxyphenyl)-4-oxo-1,4-dihydro-1-quinolinyl]butanenitrile], the viability at 10 µM is 95.5%.

The next series concerns LoVo. The series is described as above. To be noted: Homo sapiens, 10^−5 M, 72 hours incubation, MTT, mean value, read-out: mean optical density, expressed as percentage relative to the mean optical density under the control condition (100%). Format: cell-based. Put shortly:
as §1
For the molecule `CCOC(=O)CCn1cc(-c2ccc(OC)cc2)c(=O)c2ccc(OC)cc21` [CRL8468, Ethyl 3-[7-methoxy-3-(4-methoxyphenyl)-4-oxo-1,4-dihydro-1-quinolinyl]propanoate], the viability at 10 µM was determined as 97.2%.

Consider `COc1ccc(-c2cn(CCCC#N)c3cc(OC)ccc3c2=O)cc1` [CRL8470, 4-[7-Methoxy-3-(4-methoxyphenyl)-4-oxo-1,4-dihydro-1-quinolinyl]butanenitrile], for which the viability at 10 µM stood at 86.6%.

For the next series, the system named is MCF7. The series is described as above. The note with it: Homo sapiens, 10^−5 M, 72 hours incubation, MTT, mean value, read-out: mean optical density, expressed as percentage relative to the mean optical density under the control condition (100%). In kind it is cell-based. Put shortly: as §1
Consider `CCOC(=O)CCn1cc(-c2ccc(OC)cc2)c(=O)c2ccc(OC)cc21` [CRL8468, Ethyl 3-[7-methoxy-3-(4-methoxyphenyl)-4-oxo-1,4-dihydro-1-quinolinyl]propanoate], for which the viability at 10 µM amounted to 79.1%.

For the molecule `COc1ccc(-c2cn(CCCC#N)c3cc(OC)ccc3c2=O)cc1` [CRL8470, 4-[7-Methoxy-3-(4-methoxyphenyl)-4-oxo-1,4-dihydro-1-quinolinyl]butanenitrile], the viability at 10 µM stood at 92.8%.

A further series relates to PC-3. The description is as above. Format: cell-based. To be noted: Homo sapiens, 10^−5 M, 72 hours incubation, MTT, mean value, read-out: mean optical density, expressed as percentage relative to the mean optical density under the control condition (100%). The gist of the method:
as §1
Consider `CCOC(=O)CCn1cc(-c2ccc(OC)cc2)c(=O)c2ccc(OC)cc21` [CRL8468, Ethyl 3-[7-methoxy-3-(4-methoxyphenyl)-4-oxo-1,4-dihydro-1-quinolinyl]propanoate], for which the viability at 10 µM is 95%.

As for `COc1ccc(-c2cn(CCCC#N)c3cc(OC)ccc3c2=O)cc1` [CRL8470, 4-[7-Methoxy-3-(4-methoxyphenyl)-4-oxo-1,4-dihydro-1-quinolinyl]butanenitrile], the viability at 10 µM amounted to 94%.

Another series relates to T-47D. The description is as above. In kind it is cell-based. The note with it: Homo sapiens, T47D; T-47D; 10^−5 M; 72 hours incubation; MTT; mean value; read-out: mean optical density, expressed as percentage relative to the mean optical density under the control condition (100%). Put shortly:
as §1
Regarding `CCOC(=O)CCn1cc(-c2ccc(OC)cc2)c(=O)c2ccc(OC)cc21` [CRL8468, Ethyl 3-[7-methoxy-3-(4-methoxyphenyl)-4-oxo-1,4-dihydro-1-quinolinyl]propanoate], the viability at 10 µM turned out to be 92.2%.

For the molecule `COc1ccc(-c2cn(CCCC#N)c3cc(OC)ccc3c2=O)cc1` [CRL8470, 4-[7-Methoxy-3-(4-methoxyphenyl)-4-oxo-1,4-dihydro-1-quinolinyl]butanenitrile], the viability at 10 µM turned out to be 88.8%.

A further series relates to U-373MG. Described as above. To be noted: Homo sapiens, U373 MG; U-373MG; 10^−5 M; 72 hours incubation; MTT; mean value; read-out: mean optical density, expressed as percentage relative to the mean optical density under the control condition (100%). Format: cell-based. Put shortly:
as §1
On to `CCOC(=O)CCn1cc(-c2ccc(OC)cc2)c(=O)c2ccc(OC)cc21` [CRL8468, Ethyl 3-[7-methoxy-3-(4-methoxyphenyl)-4-oxo-1,4-dihydro-1-quinolinyl]propanoate], for which the viability at 10 µM amounted to 107%.

Take `COc1ccc(-c2cn(CCCC#N)c3cc(OC)ccc3c2=O)cc1` [CRL8470, 4-[7-Methoxy-3-(4-methoxyphenyl)-4-oxo-1,4-dihydro-1-quinolinyl]butanenitrile]: the viability at 10 µM stood at 104%.

For another series, the system named is U-87MG. The series is described as above. The note with it: Homo sapiens; U-87MG; 10^−5 M; 72 hours incubation; MTT; mean value; read-out: mean optical density, expressed as percentage relative to the mean optical density under the control condition (100%). In kind it is cell-based. The gist of the method:
as §1
On to `CCOC(=O)CCn1cc(-c2ccc(OC)cc2)c(=O)c2ccc(OC)cc21` [CRL8468, Ethyl 3-[7-methoxy-3-(4-methoxyphenyl)-4-oxo-1,4-dihydro-1-quinolinyl]propanoate], for which the viability at 10 µM was determined as 92.7%.

Take `COc1ccc(-c2cn(CCCC#N)c3cc(OC)ccc3c2=O)cc1` [CRL8470, 4-[7-Methoxy-3-(4-methoxyphenyl)-4-oxo-1,4-dihydro-1-quinolinyl]butanenitrile]: the viability at 10 µM was found to be 97.2%.

A further series relates to SW1088. Described as above. In kind it is cell-based. To be noted: Homo sapiens, 10^−5 M, 72 hours incubation, MTT, mean value, read-out: mean optical density, expressed as percentage relative to the mean optical density under the control condition (100%). The gist of the method: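 Human astrocytoma SW1088 cells seeded, grown 24 h at 37° C, 5% CO2, then exposed to compounds at 10^−5 to 10^−10 M versus solvent control. Viability by MTT reduction: 3 h MTT incubation, formazan dissolved in DMSO and read by spectrophotometry.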
Take `CCOC(=O)CCn1cc(-c2ccc(OC)cc2)c(=O)c2ccc(OC)cc21` [CRL8468, Ethyl 3-[7-methoxy-3-(4-methoxyphenyl)-4-oxo-1,4-dihydro-1-quinolinyl]propanoate]: the viability at 10 µM was 104%.

As for `COc1ccc(-c2cn(CCCC#N)c3cc(OC)ccc3c2=O)cc1` [CRL8470, 4-[7-Methoxy-3-(4-methoxyphenyl)-4-oxo-1,4-dihydro-1-quinolinyl]butanenitrile], the viability at 10 µM was found to be 92.5%.

Another series has as its system J82. The description is as above. Format: cell-based. The note with it: Homo sapiens, 10^−5 M, 72 hours incubation, MTT, mean value, read-out: mean optical density, expressed as percentage relative to the mean optical density under the control condition (100%). The gist of the method:
(§2)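 Human bladder cancer lines were seeded at 20 000–50 000 cells/ml and, after 24 h, exposed to compounds at 10^−5 to 10^−10 M against a solvent control. Formazan was dissolved in DMSO and viability was read by spectrophotometric optical density.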
Regarding `CCOC(=O)CCn1cc(-c2ccc(OC)cc2)c(=O)c2ccc(OC)cc21` [CRL8468, Ethyl 3-[7-methoxy-3-(4-methoxyphenyl)-4-oxo-1,4-dihydro-1-quinolinyl]propanoate], the viability at 10 µM turned out to be 91.9%.

`COc1ccc(-c2cn(CCCC#N)c3cc(OC)ccc3c2=O)cc1` [CRL8470, 4-[7-Methoxy-3-(4-methoxyphenyl)-4-oxo-1,4-dihydro-1-quinolinyl]butanenitrile]: the viability at 10 µM was 85.6%.

In the next series the test system is T24. The series is described as above. In kind it is cell-based. To be noted: Homo sapiens, T-24; T24; 10^−5 M; 72 hours incubation; MTT; mean value; read-out: mean optical density, expressed as percentage relative to the mean optical density under the control condition (100%). Put shortly: as §2
For `CCOC(=O)CCn1cc(-c2ccc(OC)cc2)c(=O)c2ccc(OC)cc21` [CRL8468, Ethyl 3-[7-methoxy-3-(4-methoxyphenyl)-4-oxo-1,4-dihydro-1-quinolinyl]propanoate], the viability at 10 µM is 98.5%.

As for `COc1ccc(-c2cn(CCCC#N)c3cc(OC)ccc3c2=O)cc1` [CRL8470, 4-[7-Methoxy-3-(4-methoxyphenyl)-4-oxo-1,4-dihydro-1-quinolinyl]butanenitrile], the viability at 10 µM stood at 101%.

Test system in the next series: not listed separately
The experiment in a line: Determination of the maximum tolerated dose (MTD). To be noted: B6D2F1/Jico, mouse, in vivo, ip; single intraperitoneal administration, doses 2.5 to 160 mg/kg, survival over 14 days. The gist of the method: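 Mice were 4- to 6-week-old B6D2F1/Jico. They received a single intraperitoneal dose of 2.5 to 160 mg/kg, and survival and body weight were followed for 14 days. MTD is given in mg/kg and is capped at 160 mg/kg by default.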
In the case of `CCOC(=O)CCn1cc(-c2ccc(OC)cc2)c(=O)c2ccc(OC)cc21` [CRL8468, Ethyl 3-[7-methoxy-3-(4-methoxyphenyl)-4-oxo-1,4-dihydro-1-quinolinyl]propanoate], the MTD at 14 day was greater than 160 mg/kg.

In turn, `COc1ccc(-c2cn(CCCC#N)c3cc(OC)ccc3c2=O)cc1` [CRL8470, 4-[7-Methoxy-3-(4-methoxyphenyl)-4-oxo-1,4-dihydro-1-quinolinyl]butanenitrile] yielded a maximal tolerated dose (MTD) at 14 day greater than 160 mg/kg.

For the origin of these results see US6645983B1, “Pharmaceutical compositions comprising 4-quinolones for treating cancers” (Laboratoire L. Lafon, priority 1999, dated 2003).
